According to PMC4376459, “CXCR3 antagonist VUF10085 binds to an intrahelical site distinct from that of the broad spectrum antagonist TAK-779” (British Journal of Pharmacology, 2015):
Positions count from the first letter of the chain named.

Legend:
CXCR3 F207A = molecular target: T1, CXCR3 F207A (Homo sapiens, UniProt P49682, F207A); experiment: Whole-cell 125I-CXCL11 binding assay, L1.2 transfectants; details: maximum concentration of CXCL11
T1 construct: expressed in transfected cells; host or cells: murine pre-B cell line L1.2, transient transfection
T1 sequence (P49682 1-368 F207A): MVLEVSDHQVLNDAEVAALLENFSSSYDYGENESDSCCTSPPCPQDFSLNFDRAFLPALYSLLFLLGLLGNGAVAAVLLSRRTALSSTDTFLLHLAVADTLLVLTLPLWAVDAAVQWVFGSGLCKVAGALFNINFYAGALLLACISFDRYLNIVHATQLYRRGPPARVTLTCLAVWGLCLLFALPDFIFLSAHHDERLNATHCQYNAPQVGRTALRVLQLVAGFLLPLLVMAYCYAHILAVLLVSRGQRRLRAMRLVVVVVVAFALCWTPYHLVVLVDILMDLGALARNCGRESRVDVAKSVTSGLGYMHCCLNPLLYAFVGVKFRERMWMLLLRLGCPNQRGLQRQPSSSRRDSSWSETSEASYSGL
Description: (§1) A previously described pcDNA3 plasmid containing human wild type (WT) CXCR3 cDNA with an HA epitope tag encoded at the N terminus (Meiser et al., [2008]) was used as a template for the generation of point mutants by PCR using the QuikChange II site-directed mutagenesis kit (Stratagene, Amsterdam, the Netherlands). All constructs were verified by DNA sequencing (Eurofins MWG Operon, Ebersberg, Germany) before use. L1.2 cells were transiently transfected by electroporation with 1 μg of vector DNA/10^6 cells at 330V, 975μF and incubated overnight in medium supplemented with 10 mM of sodium butyrate to enhance gene expression.
(§2) Whole-cell binding assays on transiently transfected L1.2 cells were performed as described previously (Vaidehi et al., [2009]) using 0.1 nM ^125I-CXCL11 (Perkin Elmer) and increasing concentrations of unlabeled CXCL11 or antagonist. Cell-associated radioactivity was counted in a Canberra Packard Cobra 5010 gamma counter (Canberra Packard, Pangebourne, UK). Curve fitting and subsequent data analysis was carried out using the program PRISM (GraphPad Software, Inc., San Diego, CA, USA) and IC50 values were obtained by non-linear regression analysis. In all experiments, each data point was assayed in duplicate, with each individual experiment repeated three times. Background binding levels obtained in the presence of a 1000–3000 molar excess of unlabelled chemokine were subtracted from each data point and data are presented as the percentage of counts obtained in the absence of competing ligand. KD values and the number of binding sites per cell were calculated from homologous binding curves prepared in Graph Pad Prism (La Jolla, CA, USA) as previously described (Nedjai et al., [2011]).

CXCR3 N132A = molecular target: T2, CXCR3 N132A (Homo sapiens, UniProt P49682, N132A); experiment: as above; details: maximum concentration of CXCL11
T2 construct: expressed in transfected cells; host or cells: murine pre-B cell line L1.2, transient transfection
T2 sequence (P49682 1-368 N132A): T1 sequence (P49682 1-368 F207A) with N132A, A207F
Description: as §1, §2

D112N-CXCR3 [1] = molecular target: T3, D112N-CXCR3 (Homo sapiens, UniProt P49682, D112N); experiment: as above; details: D112N-CXCR3 transfectants (Figure 1); read-out: IC50 for displacement of 125I-CXCL11
T3 construct: expressed in transfected cells; host or cells: murine pre-B cell line L1.2, transient transfection
T3 sequence (P49682 1-368 D112N): T1 sequence (P49682 1-368 F207A) with D112N, A207F

CXCR3 H202A (ECL2) = molecular target: T4, CXCR3 H202A (ECL2) (Homo sapiens, UniProt P49682, H202A); experiment: as above; details: 0.1 nM 125I-CXCL11, read-out: IC50 ligand binding (mean ± SEM)
T4 construct: expressed in transfected cells; host or cells: murine pre-B cell line L1.2, transient transfection
T4 sequence (P49682 1-368 H202A): T1 sequence (P49682 1-368 F207A) with H202A, A207F

D112N-CXCR3 [2] = molecular target: T3, D112N-CXCR3; experiment: Chemotaxis assay, L1.2 transfectants migrating to CXCL11; format: cell-based; details: 10 nM CXCL11, read-out: IC50 for inhibition of migration
CXCR3 Y60A = molecular target: T5, CXCR3 Y60A (Homo sapiens, UniProt P49682, Y60A); experiment: Whole-cell 125I-CXCL11 binding assay, L1.2 transfectants
T5 construct: expressed in transfected cells; host or cells: murine pre-B cell line L1.2, transient transfection
T5 sequence (P49682 1-368 Y60A): T1 sequence (P49682 1-368 F207A) with Y60A, A207F

displacement of 125I-CXCL11 by unlabelled CXCL11 (CXCR3 F207A) | displacement of 125I-CXCL11 by unlabelled CXCL11 (CXCR3 N132A) | IC50 (D112N-CXCR3 [1]) [µM] | IC50 (CXCR3 H202A (ECL2)) [µM] | IC50 (D112N-CXCR3 [2]) [µM] | reduction in IC50 value, ligand binding (CXCR3 Y60A; Y60A relative to WT) | IC50 (CXCR3 Y60A; Y60A, 0.1 nM 125I-CXCL11, read-out: IC50 ligand binding (mean ± SEM)) [µM] | Molecule
unable to displace 50% | unable to displace 50% |  |  |  |  |  | CXCL11: recombinant human chemokine, CXCR3 agonist, purchased from PeproTech
 |  | 17.2 | 25.3 ± 10.2 | 1.34 | twofold | 14 ± 7.07 | Cc1ccc(-c2ccc3c(c2)C=C(C(=O)Nc2ccc(C[N+](C)(C)C4CCOCC4)cc2)CCC3)cc1.[Cl-] [TAK-779, N,N-dimethyl-N-[4-[[[2-(4-methylphenyl)-6,7-dihydro-5H-benzocyclohepten-8-yl]-carbonyl]amino]benzyl] tetrahydro-2H-pyran-4-aminium chloride]
